Source: PubChem BioAssay (NCI)
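Protocol summary: plate cells (96-well), add compound at 5 concentrations, incubate 48 h, interpolate endpoints linearly. TGI: total growth inhibition.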

Tests used:
Assay in all cases: DTP human tumour cell line panel, 48 h
HCT-15 colon = test system: HCT-15 colon
UACC-62 melanoma = test system: UACC-62 melanoma
TK-10 renal = test system: TK-10 renal
A549 NSCLC = test system: A549 NSCLC
MDA-MB-435 = test system: MDA-MB-435
BT-549 breast = test system: BT-549 breast
KM12 colon = test system: KM12 colon
EKVX NSCLC = test system: EKVX NSCLC
T-47D breast = test system: T-47D breast
HOP-62 NSCLC = test system: HOP-62 NSCLC
OVCAR-4 ovarian = test system: OVCAR-4 ovarian
MDA-MB-231 breast = test system: MDA-MB-231 breast
HCT-116 colon = test system: HCT-116 colon
UO-31 renal = test system: UO-31 renal
NCI-H460 lung = test system: NCI-H460 lung
OVCAR-3 ovarian = test system: OVCAR-3 ovarian
786-0 renal = test system: 786-0 renal
SF-268 CNS = test system: SF-268 CNS
NCI/ADR-RES ovarian = test system: NCI/ADR-RES ovarian
HCC-2998 colon = test system: HCC-2998 colon
ACHN renal = test system: ACHN renal
OVCAR-5 ovarian = test system: OVCAR-5 ovarian
SW-620 colon = test system: SW-620 colon
HT29 colon = test system: HT29 colon
UACC-257 melanoma = test system: UACC-257 melanoma
SK-OV-3 ovarian = test system: SK-OV-3 ovarian
COLO 205 colon = test system: COLO 205 colon
LOX IMVI melanoma = test system: LOX IMVI melanoma
SNB-19 CNS = test system: SNB-19 CNS
IGROV1 ovarian = test system: IGROV1 ovarian
SK-MEL-2 melanoma = test system: SK-MEL-2 melanoma
OVCAR-8 ovarian = test system: OVCAR-8 ovarian
SF-295 CNS = test system: SF-295 CNS
NCI-H522 lung = test system: NCI-H522 lung
MCF7 breast = test system: MCF7 breast
PC-3 prostate = test system: PC-3 prostate
U251 CNS = test system: U251 CNS
MDA-N = test system: MDA-N
NCI-H226 lung = test system: NCI-H226 lung
DU-145 prostate = test system: DU-145 prostate
M14 melanoma = test system: M14 melanoma
CAKI-1 renal = test system: CAKI-1 renal
MALME-3M melanoma = test system: MALME-3M melanoma
NCI-H23 lung = test system: NCI-H23 lung
SK-MEL-5 melanoma = test system: SK-MEL-5 melanoma
HOP-92 NSCLC = test system: HOP-92 NSCLC
A498 renal = test system: A498 renal
SN12C renal = test system: SN12C renal
SNB-75 CNS = test system: SNB-75 CNS
HS 578T breast = test system: HS 578T breast
CCRF-CEM leukemia = test system: CCRF-CEM leukemia
SK-MEL-28 melanoma = test system: SK-MEL-28 melanoma
K-562 leukemia = test system: K-562 leukemia
RPMI-8226 leukemia = test system: RPMI-8226 leukemia

Brc1cccc(Nc2ncnc3sc4c(c23)CCC2(C4)OCCO2)c1
TGI (HCT-15 colon): > 100 µM
TGI (UACC-62 melanoma): 70.5 µM
TGI (TK-10 renal): 68.9 µM
TGI (A549 NSCLC): > 100 µM
TGI (MDA-MB-435): 87 µM
TGI (BT-549 breast): 75.2 µM
TGI (KM12 colon): 80.4 µM
TGI (EKVX NSCLC): > 100 µM
TGI (T-47D breast): 40.9 µM
TGI (HOP-62 NSCLC): > 100 µM
TGI (OVCAR-4 ovarian): 94.5 µM
TGI (MDA-MB-231 breast): > 100 µM
TGI (HCT-116 colon): > 100 µM
TGI (UO-31 renal): > 100 µM
TGI (NCI-H460 lung): > 100 µM
TGI (OVCAR-3 ovarian): > 100 µM
TGI (786-0 renal): > 100 µM
TGI (SF-268 CNS): > 100 µM
TGI (NCI/ADR-RES ovarian): 76.4 µM
TGI (HCC-2998 colon): 72.1 µM
TGI (ACHN renal): > 100 µM
TGI (OVCAR-5 ovarian): > 100 µM
TGI (SW-620 colon): 28.9 µM
TGI (HT29 colon): > 100 µM
TGI (UACC-257 melanoma): 91.4 µM
TGI (SK-OV-3 ovarian): > 100 µM
TGI (COLO 205 colon): 35.6 µM
TGI (LOX IMVI melanoma): 40.9 µM
TGI (SNB-19 CNS): > 100 µM
TGI (IGROV1 ovarian): 30.9 µM
TGI (SK-MEL-2 melanoma): 79.7 µM
TGI (OVCAR-8 ovarian): > 100 µM
TGI (SF-295 CNS): > 100 µM
TGI (NCI-H522 lung): 33.8 µM
TGI (MCF7 breast): > 100 µM
TGI (PC-3 prostate): > 100 µM
TGI (U251 CNS): > 100 µM
TGI (MDA-N): > 100 µM
TGI (NCI-H226 lung): 77.6 µM
TGI (DU-145 prostate): 50.1 µM
TGI (M14 melanoma): 68.6 µM
TGI (CAKI-1 renal): > 100 µM
TGI (MALME-3M melanoma): > 100 µM
TGI (NCI-H23 lung): > 100 µM
TGI (SK-MEL-5 melanoma): 32.3 µM
TGI (HOP-92 NSCLC): 48.6 µM
TGI (A498 renal): 42 µM
TGI (SN12C renal): > 100 µM
TGI (SNB-75 CNS): 80.9 µM
TGI (HS 578T breast): > 100 µM

COC(=O)C(C)(C)NC(=O)C(Cc1ccccc1)Nc1ncnc2c1ncn2-c1ccc(OC)cc1 (stereo unspecified)
TGI (HCT-15 colon): > 100 µM
TGI (UACC-62 melanoma): > 100 µM
TGI (TK-10 renal): > 100 µM
TGI (A549 NSCLC): > 100 µM
TGI (MDA-MB-435): 32 µM
TGI (BT-549 breast): 98.6 µM
TGI (CCRF-CEM leukemia): 35.8 µM
TGI (KM12 colon): 96.7 µM
TGI (EKVX NSCLC): 45.6 µM
TGI (T-47D breast): 58.2 µM
TGI (HOP-62 NSCLC): > 100 µM
TGI (OVCAR-4 ovarian): > 100 µM
TGI (SK-MEL-28 melanoma): > 100 µM
TGI (MDA-MB-231 breast): > 100 µM
TGI (HCT-116 colon): > 100 µM
TGI (UO-31 renal): > 100 µM
TGI (NCI-H460 lung): 73.5 µM
TGI (OVCAR-3 ovarian): > 100 µM
TGI (786-0 renal): > 100 µM
TGI (SF-268 CNS): > 100 µM
TGI (NCI/ADR-RES ovarian): > 100 µM
TGI (HCC-2998 colon): > 100 µM
TGI (ACHN renal): > 100 µM
TGI (OVCAR-5 ovarian): > 100 µM
TGI (SW-620 colon): 54.1 µM
TGI (HT29 colon): 46.6 µM
TGI (K-562 leukemia): > 100 µM
TGI (RPMI-8226 leukemia): > 100 µM
TGI (UACC-257 melanoma): > 100 µM
TGI (SK-OV-3 ovarian): > 100 µM
TGI (COLO 205 colon): > 100 µM
TGI (LOX IMVI melanoma): > 100 µM
TGI (SNB-19 CNS): > 100 µM
TGI (IGROV1 ovarian): > 100 µM
TGI (SK-MEL-2 melanoma): > 100 µM
TGI (OVCAR-8 ovarian): > 100 µM
TGI (SF-295 CNS): > 100 µM
TGI (NCI-H522 lung): 34.2 µM
TGI (MCF7 breast): 72.4 µM
TGI (PC-3 prostate): > 100 µM
TGI (U251 CNS): > 100 µM
TGI (MDA-N): 43.9 µM
TGI (NCI-H226 lung): > 100 µM
TGI (DU-145 prostate): > 100 µM
TGI (M14 melanoma): > 100 µM
TGI (CAKI-1 renal): > 100 µM
TGI (NCI-H23 lung): > 100 µM
TGI (SK-MEL-5 melanoma): > 100 µM
TGI (HOP-92 NSCLC): 58.2 µM
TGI (A498 renal): 72.7 µM
TGI (SN12C renal): > 100 µM
TGI (SNB-75 CNS): 69.1 µM
TGI (HS 578T breast): 79.8 µM

COc1ccc(N2C(=O)C3c4[nH]c5c(C)cccc5c4C4CCC(c5ccccc5)CC4C3C2=O)cc1 (stereo unspecified)
TGI (HCT-15 colon): > 100 µM
TGI (TK-10 renal): > 100 µM
TGI (A549 NSCLC): 24.2 µM
TGI (MDA-MB-435): 34.3 µM
TGI (BT-549 breast): 47.8 µM
TGI (CCRF-CEM leukemia): 4.41 µM
TGI (KM12 colon): 42.2 µM
TGI (EKVX NSCLC): 63.4 µM
TGI (T-47D breast): 28.6 µM
TGI (HOP-62 NSCLC): 27.3 µM
TGI (OVCAR-4 ovarian): 26.6 µM
TGI (SK-MEL-28 melanoma): 27.9 µM
TGI (MDA-MB-231 breast): 78.2 µM
TGI (HCT-116 colon): > 100 µM
TGI (UO-31 renal): 43.3 µM
TGI (NCI-H460 lung): 18.2 µM
TGI (OVCAR-3 ovarian): 60.4 µM
TGI (786-0 renal): > 100 µM
TGI (SF-268 CNS): 20.3 µM
TGI (NCI/ADR-RES ovarian): 66.4 µM
TGI (ACHN renal): 43.5 µM
TGI (OVCAR-5 ovarian): 28.8 µM
TGI (SW-620 colon): 40.5 µM
TGI (HT29 colon): 21.3 µM
TGI (RPMI-8226 leukemia): 30.4 µM
TGI (UACC-257 melanoma): 51.2 µM
TGI (SK-OV-3 ovarian): 34 µM
TGI (COLO 205 colon): 83.9 µM
TGI (LOX IMVI melanoma): > 100 µM
TGI (SNB-19 CNS): 76.3 µM
TGI (IGROV1 ovarian): 33.5 µM
TGI (SK-MEL-2 melanoma): 60.8 µM
TGI (OVCAR-8 ovarian): 36.8 µM
TGI (SF-295 CNS): 40.2 µM
TGI (NCI-H522 lung): 16.7 µM
TGI (MCF7 breast): 21.7 µM
TGI (PC-3 prostate): 28.2 µM
TGI (MDA-N): 34.3 µM
TGI (NCI-H226 lung): 46.3 µM
TGI (DU-145 prostate): 31.1 µM
TGI (M14 melanoma): 26 µM
TGI (CAKI-1 renal): 39.3 µM
TGI (NCI-H23 lung): 67.7 µM
TGI (HOP-92 NSCLC): 41 µM
TGI (A498 renal): 39.1 µM
TGI (SN12C renal): 59.5 µM
TGI (SNB-75 CNS): 24.4 µM
TGI (HS 578T breast): 28.6 µM
